# Patent publication US9828379B2 (priority 2013, dated 2017)
# What was measured:
# ABHD6 [1] = target: T1, ABHD6 (Mus musculus, UniProt Q8R2Y0); assay: biochemical; details: in vitro competitive ABPP
# T1 sequence (Q8R2Y0 1-336): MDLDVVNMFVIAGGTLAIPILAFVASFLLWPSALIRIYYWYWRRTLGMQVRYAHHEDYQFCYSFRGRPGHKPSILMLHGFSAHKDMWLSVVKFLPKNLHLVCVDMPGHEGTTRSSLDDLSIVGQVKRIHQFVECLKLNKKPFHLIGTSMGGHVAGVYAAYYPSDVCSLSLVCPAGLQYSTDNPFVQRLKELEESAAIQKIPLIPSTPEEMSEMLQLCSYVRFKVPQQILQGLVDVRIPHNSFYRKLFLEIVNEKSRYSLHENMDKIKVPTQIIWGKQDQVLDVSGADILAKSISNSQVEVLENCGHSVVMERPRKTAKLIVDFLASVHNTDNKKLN
# FAAH [2] = target: T2, FAAH (Mus musculus, UniProt O08914); assay: biochemical; details: in vitro competitive ABPP
# T2 sequence (O08914 1-579): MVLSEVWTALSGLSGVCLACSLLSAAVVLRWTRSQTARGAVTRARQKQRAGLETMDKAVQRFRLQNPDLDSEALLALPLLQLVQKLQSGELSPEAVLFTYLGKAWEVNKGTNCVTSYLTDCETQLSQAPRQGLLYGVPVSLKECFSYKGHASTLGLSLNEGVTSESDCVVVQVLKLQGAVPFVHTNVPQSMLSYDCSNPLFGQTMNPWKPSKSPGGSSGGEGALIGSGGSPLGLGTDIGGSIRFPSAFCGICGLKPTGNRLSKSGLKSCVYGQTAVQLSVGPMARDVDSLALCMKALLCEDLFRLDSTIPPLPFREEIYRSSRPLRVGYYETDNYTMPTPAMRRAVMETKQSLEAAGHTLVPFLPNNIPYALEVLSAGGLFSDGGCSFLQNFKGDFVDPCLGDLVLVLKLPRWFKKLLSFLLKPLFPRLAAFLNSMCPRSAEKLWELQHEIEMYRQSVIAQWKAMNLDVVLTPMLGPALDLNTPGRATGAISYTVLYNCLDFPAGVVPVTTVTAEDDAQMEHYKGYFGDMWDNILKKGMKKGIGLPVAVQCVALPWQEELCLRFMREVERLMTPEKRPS
# MAGL [3] = target: T3, MAGL (Mus musculus, UniProt O35678); assay: biochemical; details: mouse; in vitro competitive ABPP; read-out: Mouse (IC50 value, nM) MAGL
# T3 sequence (O35678 1-303): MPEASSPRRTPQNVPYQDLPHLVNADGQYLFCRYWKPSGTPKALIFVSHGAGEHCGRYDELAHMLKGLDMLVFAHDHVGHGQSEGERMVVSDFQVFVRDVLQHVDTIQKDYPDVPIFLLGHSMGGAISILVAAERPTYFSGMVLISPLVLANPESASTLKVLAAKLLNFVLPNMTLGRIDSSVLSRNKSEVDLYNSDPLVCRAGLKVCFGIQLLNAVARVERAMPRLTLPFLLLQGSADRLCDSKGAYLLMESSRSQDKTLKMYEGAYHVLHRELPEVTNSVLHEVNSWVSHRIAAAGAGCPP
# Mouse brain MAGL = target: T4, Mouse brain MAGL (Mus musculus, UniProt O35678); assay: Mouse brain proteomes from inhibitor treated mice (oral gavage, ABPP analysis); format: in vivo; details: p.o., sacrificed 4 h following administration
# T4 construct: from tissue; host or cells: brain of wild-type C57Bl/6J mice dosed by oral gavage
# T4 sequence (O35678 1-303): T3 sequence (O35678 1-303)
# Description: After 30 min, FP—Rh (1.0 μL, 50 μM in DMSO) was added and the mixture was incubated for another 30 min at 37° C. Reactions were quenched with SDS loading buffer (50 μL-4×) and run on SDS-PAGE. Following gel imaging, serine hydrolase activity was determined by measuring fluorescent intensity of gel bands corresponding to MAGL, ABHD6 and FAAH using ImageJ 1.43 u software.
# Inhibitors were administered to wild-type C57Bl/6J by oral gavage in a vehicle of polyethylene glycol. Each animal was sacrificed 4 h following administration and brain proteomes were prepared and analyzed according to previously established methods (See Niphakis, M. J., et al. (2011) ACS Chem. Neurosci. and Long, J. Z., et al. Nat. Chem. Biol. 5:37-44).
# ABHD6 [4] = target: T1, ABHD6; assay: In vitro competitive activity-based protein profiling (Table 2, % inhibition at 1 μM); format: biochemical; details: read-out: % Inhibition at 1 μM ABHD6
# FAAH [5] = target: T2, FAAH; assay: as above; format: biochemical; details: read-out: % Inhibition at 1 μM FAAH
# MAGL [6] = target: T3, MAGL; assay: as above; format: biochemical; details: read-out: % Inhibition at 1 μM MAGL
# Description: After 30 min, FP—Rh (1.0 μL, 50 μM in DMSO) was added and the mixture was incubated for another 30 min at 37° C. Reactions were quenched with SDS loading buffer (50 μL-4×) and run on SDS-PAGE.
# Cell lysates were diluted with mock proteomes for use in competitive ABPP experiments.
SMILES,IC50 (ABHD6 [1]),IC50 (FAAH [2]),IC50 (MAGL [3]),inhibition at 5 mg/kg (Mouse brain MAGL),inhibition at 1 µM (ABHD6 [4]),inhibition at 1 µM (FAAH [5]),inhibition at 1 µM (MAGL [6])
"O=C(OC(C(F)(F)F)C(F)(F)F)N1CC2CN(Cc3cccc(N4CCC5(CCOC5)C4)c3C(F)(F)F)CC2C1 (centres unmarked) [Example 128, 1,1,1,3,3,3-hexafluoropropan-2-yl 5-[(3-[2-oxa-7-azaspiro[4.4]nonan-7-yl]-2-(trifluoromethyl)phenyl)methyl]-octahydropyrrolo[3,4-c]pyrrole-2-carboxylate]",1000 to 10000 nM,1000 to 10000 nM,< 100 nM,≤ 25%,< 25%,< 25%,> 75%
"Cc1c(CN2CC3CN(C(=O)OC(C(F)(F)F)C(F)(F)F)CC3C2)cccc1N1CCCCC1 (centres unmarked) [Example 29, 1,1,1,3,3,3-Hexafluoropropan-2-yl 5-[[2-methyl-3-(piperidin-1-yl)phenyl]methyl]-octahydropyrrolo[3,4-c]pyrrole-2-carboxylate]",> 10000 nM,1000 to 10000 nM,< 100 nM,≤ 25%,< 25%,25 to 75%,> 75%
"CC(C)c1cc(CN2CC3CN(C(=O)OC(C(F)(F)F)C(F)(F)F)CC3C2)n(C2CCCCC2)n1 (centres unmarked) [Example 61, 1,1,1,3,3,3-Hexafluoropropan-2-yl 5-[[1-cyclohexyl-3-(propan-2-yl)-1H-pyrazol-5-yl]methyl]-octahydropyrrolo[3,4-c]pyrrole-2-carboxylate]",1000 to 10000 nM,> 10000 nM,< 100 nM,≥ 75%,25 to 75%,< 25%,> 75%
"Cc1c(CN2CC3CN(C(=O)OC(C(F)(F)F)C(F)(F)F)CC3C2)cccc1N1C2CCC1COC2 (centres unmarked) [Example 127, 1,1,1,3,3,3-hexafluoropropan-2-yl 5-[(2-methyl-3-[3-oxa-8-azabicyclo[3.2.1]octan-8-yl]phenyl)methyl]-octahydropyrrolo[3,4-c]pyrrole-2-carboxylate]",1000 to 10000 nM,1000 to 10000 nM,< 100 nM,25 to 75%,25 to 75%,< 25%,> 75%
"CC(=O)N1CCC2(CCN(c3ccccc3CN3CC4CN(C(=O)OC(C(F)(F)F)C(F)(F)F)CC4C3)C2)C1 (centres unmarked) [Example 135, 1,1,1,3,3,3-hexafluoropropan-2-yl 5-[(2-[7-acetyl-2,7-diazaspiro[4.4]nonan-2-yl]phenyl)methyl]-octahydropyrrolo[3,4-c]pyrrole-2-carboxylate]",1000 to 10000 nM,1000 to 10000 nM,< 100 nM,≤ 25%,< 25%,< 25%,> 75%
"O=C(OC(C(F)(F)F)C(F)(F)F)N1CC2CN(Cc3cc(CN4CCCC4)ccc3OC(F)(F)F)CC2C1 (centres unmarked) [Example 190, 1,1,1,3,3,3-hexafluoropropan-2-yl 5-(5-(pyrrolidin-1-ylmethyl)-2-(trifluoromethoxy)benzyl)hexahydropyrrolo[3,4-c]pyrrole-2(1H)-carboxylate]",1000 to 10000 nM,1000 to 10000 nM,100 to 1000 nM,,< 25%,< 25%,> 75%
"CCn1cc(CN2CC3CN(C(=O)OC(C(F)(F)F)C(F)(F)F)CC3C2)c(-c2ccncc2)n1 (centres unmarked) [Example 72, 1,1,1,3,3,3-Hexafluoropropan-2-yl 5-[[1-ethyl-3-(pyridin-4-yl)-1H-pyrazol-4-yl]methyl]-octahydropyrrolo[3,4-c]pyrrole-2-carboxylate]",1000 to 10000 nM,1000 to 10000 nM,< 100 nM,,25 to 75%,< 25%,> 75%
"O=C(OC(C(F)(F)F)C(F)(F)F)N1CC2CN(Cc3cccc(N4CCOCC4)c3Cl)CC2C1 (centres unmarked) [Example 49, 1,1,1,3,3,3-Hexafluoropropan-2-yl 5-[[2-chloro-3-(morpholin-4-yl)phenyl]methyl]-octahydropyrrolo[3,4-c]pyrrole-2-carboxylate]",1000 to 10000 nM,1000 to 10000 nM,< 100 nM,,< 25%,25 to 75%,> 75%
"CC(C)n1cc(CN2CC3CN(C(=O)OC(C(F)(F)F)C(F)(F)F)CC3C2)c(-c2ccccc2)n1 (centres unmarked) [Example 53, 1,1,1,3,3,3-Hexafluoropropan-2-yl 5-[[3-phenyl-1-(propan-2-yl)-1H-pyrazol-4-yl]methyl]-octahydropyrrolo[3,4-c]pyrrole-2-carboxylate]",1000 to 10000 nM,1000 to 10000 nM,< 100 nM,,25 to 75%,< 25%,> 75%
"O=C(ON1C(=O)CCC1=O)N1CC2CN(Cc3ccc(N4CCOCC4)cc3OC(F)(F)F)CC2C1 (centres unmarked) [Example 86, 2,5-Dioxopyrrolidin-1-yl 5-[[4-(morpholin-4-yl)-2-(trifluoromethoxy)phenyl]methyl]-octahydropyrrolo[3,4-c]pyrrole-2-carboxylate]",1000 to 10000 nM,1000 to 10000 nM,100 to 1000 nM,,< 25%,25 to 75%,> 75%
"CC(=O)N1CCN(c2ccc(CN3CC4CN(C(=O)OC(C(F)(F)F)C(F)(F)F)CC4C3)c(Cl)c2)CC1 (centres unmarked) [Example 28, 1,1,1,3,3,3-Hexafluoropropan-2-yl 5-[[4-(4-acetylpiperazin-1-yl)-2-chlorophenyl]methyl]-octahydropyrrolo[3,4-c]pyrrole-2-carboxylate]",1000 to 10000 nM,100 to 1000 nM,< 100 nM,,< 25%,25 to 75%,> 75%
"O=C(OC(C(F)(F)F)C(F)(F)F)N1CC2CN(Cc3ccc(Cl)cc3N3CCCC3)CC2C1 (centres unmarked) [Example 19, 1,1,1,3,3,3-Hexafluoropropan-2-yl 5-[[4-chloro-2-(pyrrolidin-1-yl)phenyl]methyl]-octahydropyrrolo[3,4-c]pyrrole-2-carboxylate]",1000 to 10000 nM,1000 to 10000 nM,< 100 nM,,< 25%,25 to 75%,> 75%
"O=C(ON1C(=O)CCC1=O)N1CC2CN(Cc3cccc(Cl)c3N3CCC(F)CC3)CC2C1 (centres unmarked) [Example 160, 2,5-dioxopyrrolidin-1-yl 5-[[3-chloro-2-(4-fluoropiperidin-1-yl)phenyl]methyl]-octahydropyrrolo[3,4-c]pyrrole-2-carboxylate]",1000 to 10000 nM,1000 to 10000 nM,100 to 1000 nM,,25 to 75%,25 to 75%,> 75%
